Where a name gives a salt, the structure may show the parent alone.

This assay has as its target T1, recombinant human TGR5 (Homo sapiens, UniProt Q8TDU6).
T1 construct: expressed in transfected cells
T1 sequence (Q8TDU6 1-330): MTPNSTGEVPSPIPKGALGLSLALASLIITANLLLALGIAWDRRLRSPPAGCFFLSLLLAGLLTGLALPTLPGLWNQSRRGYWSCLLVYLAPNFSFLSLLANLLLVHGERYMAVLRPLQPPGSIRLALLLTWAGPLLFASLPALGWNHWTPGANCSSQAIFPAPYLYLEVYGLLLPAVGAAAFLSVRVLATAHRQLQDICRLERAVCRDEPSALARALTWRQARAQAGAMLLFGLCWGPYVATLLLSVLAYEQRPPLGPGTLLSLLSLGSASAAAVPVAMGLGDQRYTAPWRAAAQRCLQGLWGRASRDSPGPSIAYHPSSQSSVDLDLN
Kind of assay: cAMP assay (cAMP accumulation, HTRF) in CHOK1 cells stably expressing TGR5. It counts as cell-based. Particulars: CHOK1 cells stably expressing human TGR5, 30 minutes at RT, 1% DMSO. As to the method:
The in vitro modulation of recombinant human TGR5 was determined as follows.
A human TGR5 expression construct of human TGR5 was integrated into the genome of a CHOK1 cell line (Invitrogen). Once a stable CHOK1 cell line was generated, the cells were incubated for 5-10 minutes in culture medium consisting of F-12 (Invitrogen#11765-047) supplemented with 10% fetal bovine serum.
On the day of the cAMP accumulation assay, cells stably expressing the […] TGR5 construct were centrifuged at 1000 rpm for 5 minutes. The medium was aspirated and the cells were resuspended in 5 mL of assay buffer (phosphate-buffered saline with Ca^2+ and Mg^2+, Invitrogen#14040). The cells were counted using 1:2 dilution and then adjusted to 0.4-0.5×10^6 cells/mL in assay buffer, if necessary. Isobutylmethylxanthine (IBMX, Sigma#I5879) was added via a 1:5000 dilution to make a 0.1 mM final concentration and then 10 μL of the media were transferred to each well of a 384 well poly-D-lysine coated solid white plate (BD #35-6661) pre-dotted with 100 nL of with the desired concentration of compound added from a concentrated stock dissolved in dimethyl sulfoxide (DMSO) to give a final concentration of 1% DMSO in the assay. The plates were covered and incubated for 30 minutes at RT. cAMP accumulation was measured using the CisBio homogeneous time resolved fluorescence (HTRF) assay kit (#62AM2PEC) following the manufacturer's protocol. Briefly, 5 μl each of the cAMP-HTRF fluorescence detection reagents were added to each well, and the samples were incubated for at least one hour at room temperature. Fluorescence was excited at 320 nm and measured at 665 and 620 nm using the Envision instrument (Perkin Elmer), the fluorescence ratio of 665/620 was calculated and converted to nanomolar concentrations of cAMP in each well by interpolation from a cAMP standard curve. The concentration-response curves and EC50 values were calculated with a four parameter logistic curve fit equation utilizing Excel/XLfit software (Microsoft and IDBS). The EC50 value was calculated as the concentration of agonist which increased the cAMP concentration to a value halfway between the baseline and the maximum.
Background: Changes in cAMP serve as a functional read-out for many G protein-coupled receptors.
The EC50 is the concentration needed to bring the measured effect to its halfway point. As for `Cc1cccc(OCCCC(=O)N2CCCc3c(-c4cnn(CCNC(=O)C5(C(=O)NCCS(=O)(=O)O)CC5)c4)cccc32)c1C` [Example 110K, 2-(1-(2-(4-(1-(4-(2,3-Dimethylphenoxy)butanoyl)-1,2,3,4-tetrahydroquinolin-5-yl)-1H-pyrazol-1-yl)ethylcarbamoyl)cyclopropanecarboxamido) ethanesulfonic acid], the EC50 was 5000 nM.
Regarding `Cc1cccc(OCCCC(=O)N(C)c2cccc(-c3cnn(Cc4cccc(C(=O)NCCC(=O)O)c4)c3)c2)c1C` [Example 552, 3-(3-((4-(3-(4-(2,3-Dimethylphenoxy)-N-methylbutanamido)phenyl)-1H-pyrazol-1-yl)methyl)benzamido)propanoic acid], the EC50 turned out to be 2380 nM.
Take `Cc1c(Cl)cccc1OCCCC(=O)N1CCSc2c(-c3cnn(Cc4c(F)cc(C(=O)NCCC(=O)O)cc4Cl)c3)cccc21` [Example 577, 3-(3-Chloro-4-((4-(4-(4-(3-chloro-2-methylphenoxy)butanoyl)-3,4-dihydro-2H-benzo[b][1,4]thiazin-8-yl)-1H-pyrazol-1-yl)methyl)-5-fluorobenzamido)propanoic acid]: the EC50 was determined as 31 nM.
Consider `Cc1cccc(OCCCC(=O)N2CCCc3c(-c4cnn(Cc5cccc(S(=O)(=O)N[C@@H](CCC[N+](C)(C)C)C(=O)O)c5)c4)cccc32)c1C` [Example 507, (S)-4-Carboxy-4-(3-((4-(1-(4-(2,3-dimethylphenoxy)butanoyl)-1,2,3,4-tetrahydroquinolin-5-yl)-1H-pyrazol-1-yl)methyl)phenyl-sulfonamido)-N,N, N-trimethylbutan-1-aminium], for which the EC50 is 2110 nM.
For `CCOC(=O)CNC(=O)Nc1cccc(Cn2cc(-c3cccc4c3[C@H]3C[C@H]3CN4C(=O)CCCOc3cccc(Cl)c3C)cn2)c1` [Example 914, Ethyl 2-(3-(3-((4-((1aR,7bS)-3-(4-(3-chloro-2-methylphenoxy)butanoyl)-1a,2,3,7b-tetrahydro-1H-cyclopropa[c]quinolin-7-yl)-1H-pyrazol-1-yl)methyl)phenyl)ureido)acetate], the EC50 was determined as 32 nM.
As for `Cc1cccc(OCCCC(=O)N2CCCc3c(-c4cnn(CCNC(=O)C5(C(=O)O)CC5)c4)cccc32)c1C` [Example 110H, 1-(2-(4-(1-(4-(2,3-Dimethylphenoxy)butanoyl)-1,2,3,4-tetrahydroquinolin-5-yl)-1H-pyrazol-1-yl)ethylcarbamoyl) cyclopropanecarboxylic acid], the figure is 6560 nM; as for `Cc1cccc(OCCCC(=O)N2CCCc3c(-c4cnn(Cc5cccc(C(=O)NCCS(=O)(=O)O)c5)c4C)cccc32)c1C` [Example 168J, 2-(3-((4-(1-(4-(2,3-Dimethylphenoxy)butanoyl)-1,2,3,4-tetrahydroquinolin-5-yl)-5-methyl-1H-pyrazol-1-yl)methyl)benzamido) ethanesulfonic acid], 643 nM; as for `Cc1cccc(OCCCC(=O)N2CCCc3c(-c4cccc(COC(=O)N[C@@H](Cc5cncn5C)C(=O)O)c4)cccc32)c1C` [Example 316, (S)-2-((3-(1-(4-(2,3-Dimethylphenoxy)butanoyl)-1,2,3,4-tetrahydroquinolin-5-yl)benzyloxy)carbonylamino)-3-(1-methyl-1H-imidazol-5-yl) propanoic acid], 638 nM.
As for `Cc1cccc(OCCCC(=O)N2C[C@@H]3C[C@@H]3c3c(-c4cnn(Cc5cccc(C(=O)N(CC(=O)O)CC(=O)O)c5)c4)cccc32)c1C` [Example 882, 2,2′-(3-((4-((1aR,7bS)-3-(4-(2,3-Dimethylphenoxy)butanoyl)-1a,2,3,7b-tetrahydro-1H-cyclopropa[c]quinolin-7-yl)-1H-pyrazol-1-yl)methyl)benzoylazanediyl) diacetic acid], the figure is 1340 nM.
Next, `Cc1c(Cl)cccc1OCCOC(=O)N1C[C@@H]2C[C@@H]2c2c(-c3cnn(Cc4cccc(NC(=O)NCS(=O)(=O)O)c4)c3)cccc21` [Example 527, (3-(3-((4-((1aR,7bS)-3-((2-(3-Chloro-2-methyl-phenoxy)ethoxy)carbonyl)-1a,2,3,7b-tetrahydro-1H-cyclopropa[c]quinolin-7-yl)-1H-pyrazol-1-yl)methyl)phenyl)ureido) methanesulfonic acid]: 184 nM; `Cc1c(Cl)cccc1OCCCC(=O)N1CCCOc2c(-c3cnn(Cc4cccc(NC(=O)NCC(=O)O)c4)c3)cccc21` [Example 521, 2-(3-(3-((4-(5-(4-(3-Chloro-2-methylphenoxy)butanoyl)-2,3,4,5-tetrahydrobenzo[b] [1,4]oxazepin-9-yl)-1H-pyrazol-1-yl)methyl)phenyl)ureido)acetic acid]: 176 nM; `Cc1cccc(OCCCC(=O)N2CCCc3c(-c4cnn(Cc5cccc(-c6nnn(CC(=O)O)n6)c5)c4)cccc32)c1C` [Example 430, 2-(5-(3-((4-(1-(4-(2,3-Dimethylphenoxy)butanoyl)-1,2,3,4-tetrahydroquinolin-5-yl)-1H-pyrazol-1-yl)methyl)phenyl)-2H-tetrazol-2-yl) acetic acid]: 197 nM.
With `Cc1cccc(OCCCC(=O)N2CCCc3c(-c4cnn(Cc5cccc(N(C)C(=O)NCC[N+](C)(C)C)c5)c4)cccc32)c1C` [Example 471, 2-(3-(3-((4-(1-(4-(2,3-Dimethylphenoxy)butanoyl)-1,2,3,4-tetrahydroquinolin-5-yl)-1H-pyrazol-1-yl)methyl)phenyl)-3-methylureido)-N,N,N-trimethylethanaminium, TFA salt], the EC50 worked out at 2170 nM.
`Cc1cccc(OCCCC(=O)N2CCCc3c(-c4cnn(Cc5cccc(C(=O)N6CCCC(CO)C6)c5)c4)cccc32)c1C` (stereo not drawn) [Example 830, 4-(2,3-Dimethylphenoxy)-1-(5-(1-(3-(3-(hydroxymethyl)piperidine-1-carbonyl)benzyl)-1H-pyrazol-4-yl)-3,4-dihydroquinolin-1(2H)-yl)butan-1-one]: the EC50 was 176 nM.
On to `Cc1cccc(OCCCC(=O)N2CCSc3c(-c4cnn(Cc5c(F)cc(C(=O)NCCC(=O)O)cc5Cl)c4)cccc32)c1C` [Example 575, 3-(3-Chloro-4-((4-(4-(4-(2,3-dimethylphenoxy)butanoyl)-3,4-dihydro-2H-benzo[b][1,4]thiazin-8-yl)-1H-pyrazol-1-yl)methyl)-5-fluorobenzamido) propanoic acid], for which the EC50 came out at 49 nM.
For the molecule `Cc1cccc(OCCCC(=O)N2CCCc3c(-c4ccn(Cc5cccc(C(=O)NCCS(=O)(=O)O)c5)c4)cccc32)c1C` [Example 168N], the EC50 was found to be 4370 nM.
For the molecule `Cc1c(Cl)cccc1OCCCC(=O)N1CCSc2c(-c3cnn(Cc4c(F)cc(C(=O)NCCC[C@H](N)C(=O)O)cc4Cl)c3)cccc21` [Example 583, (S)-2-Amino-5-(3-chloro-4-((4-(4-(4-(3-chloro-2-methylphenoxy)butanoyl)-3,4-dihydro-2H-benzo[b][1,4]thiazin-8-yl)-1H-pyrazol-1-yl)methyl)-5-fluorobenzamido) pentanoic acid], the EC50 was 43 nM.
In the case of `Cc1cccc(OCCCC(=O)N2CCCc3c(-c4csc(COC(=O)NCCC(=O)O)n4)cccc32)c1C` [Example 46, 3-(((4-(1-(4-(2,3-Dimethylphenoxy)butanoyl)-1,2,3,4-tetrahydroquinolin-5-yl)thiazol-2-yl)methoxy)carbonylamino)propanoic acid], the EC50 amounted to 1920 nM.

Source of the values: US9062028B2, “Bicyclic nitrogen containing heteroaryl TGR5 receptor modulators” (Bristol-Myers Squibb Company, priority 2011, dated 2015).
